Molecular target: human PDE10A (Homo sapiens (Human), UniProt Q9Y233)
Test: human PDE10A full length Scintillation Proximity Assay (SPA)
Type: biochemical
Details: 50 nM cGMP and 50 nM [3H]-cGMP, 20 minutes at room temperature; read-out: PDE10A inhibition IC50
Protocol: The following test was carried out in order to determine the activity of the compounds of the present invention.
The human PDE10A full length assay was performed in 96-well micro titer plates. […] Non-specific activity was tested without the enzyme. The reaction was initiated by the addition of the substrate solution (cGMP and [^3H]-cGMP) and allowed to progress for 20 minutes at room temperature. The reaction was terminated by adding 25 μl of YSi-SPA scintillation beads (GE Healthcare, cat. # RPNQ0150) in 18 mM zinc sulphate solution (stop reagent). After 1 h under shaking, the plate was centrifuged one minute at 170 g to allow beads to settle. Afterwards, radioactive counts were measured on a Perkin Elmer TopCount Scintillation plate reader.

Chain of human PDE10A (Q9Y233 other isoform, or with tags, fused parts or gaps): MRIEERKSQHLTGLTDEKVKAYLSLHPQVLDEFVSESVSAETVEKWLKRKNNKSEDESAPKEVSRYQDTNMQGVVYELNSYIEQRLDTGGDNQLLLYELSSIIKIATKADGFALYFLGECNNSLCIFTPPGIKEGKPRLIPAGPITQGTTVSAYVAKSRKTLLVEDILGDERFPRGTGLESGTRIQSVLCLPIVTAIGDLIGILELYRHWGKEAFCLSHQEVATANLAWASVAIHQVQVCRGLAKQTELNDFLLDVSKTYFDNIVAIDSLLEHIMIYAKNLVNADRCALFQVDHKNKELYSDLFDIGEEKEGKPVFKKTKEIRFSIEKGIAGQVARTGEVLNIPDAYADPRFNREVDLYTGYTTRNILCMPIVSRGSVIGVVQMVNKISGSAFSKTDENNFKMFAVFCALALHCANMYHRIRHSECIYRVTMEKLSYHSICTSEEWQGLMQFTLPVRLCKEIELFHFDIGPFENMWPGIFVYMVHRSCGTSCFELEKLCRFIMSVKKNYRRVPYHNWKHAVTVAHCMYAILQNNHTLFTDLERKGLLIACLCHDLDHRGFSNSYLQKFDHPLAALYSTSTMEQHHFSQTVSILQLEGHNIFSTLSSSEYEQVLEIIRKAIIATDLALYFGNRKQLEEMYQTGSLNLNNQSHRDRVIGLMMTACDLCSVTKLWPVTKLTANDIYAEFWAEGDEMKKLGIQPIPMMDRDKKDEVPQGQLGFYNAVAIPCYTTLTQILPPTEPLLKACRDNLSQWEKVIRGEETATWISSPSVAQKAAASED

| IC50 | SMILES |
| --- | --- |
| 2.1 nM | CNC(=O)c1ccncc1NC(=O)c1nc(C2CC2)cnc1Nc1cncnc1 [Example 124, 6-Cyclopropyl-3-(pyrimidin-5-ylamino)-pyrazine-2-carboxylic acid (4-methylcarbamoyl-pyridin-3-yl)-amide] |
| 5.2 nM | CC(NC(=O)c1c(NC(=O)c2nc(C3CC3)cnc2Nc2cncnc2)cnn1C)C(F)(F)F (stereo not drawn) [Example 164, 6-Cyclopropyl-3-(pyrimidin-5-ylamino)-pyrazine-2-carboxylic acid [1-methyl-5-(2,2,2-trifluoro-1-methyl-ethylcarbamoyl)-1H-pyrazol-4-yl]-amide] |
| 18.7 nM | O=C(Nc1cnccc1C(=O)N1CCCC1)c1nc(C2CC2)ccc1Nc1cncnc1 [Example 22, 6-Cyclopropyl-3-(pyrimidin-5-ylamino)-pyridine-2-carboxylic acid [4-(pyrrolidine-1-carbonyl)-pyridin-3-yl]-amide] |
| 19.3 nM | CN(CC(O)CO)C(=O)c1nn(C)cc1NC(=O)c1nc(C2CC2)ccc1Nc1cncnc1 (stereo not drawn) [Example 46, 6-Cyclopropyl-3-(pyrimidin-5-ylamino)-pyridine-2-carboxylic acid {3-[(2,3-dihydroxy-propyl)-methyl-carbamoyl]-1-methyl-1H-pyrazol-4-yl}-amide] |
| 2.7 nM | CNC(=O)c1c(NC(=O)c2nc(C3CC3)cnc2Nc2cncnc2)ccc(F)c1F [Example 317, 6-Cyclopropyl-3-(pyrimidin-5-ylamino)-pyrazine-2-carboxylic acid (3,4-difluoro-2-methylcarbamoyl-phenyl)-amide] |
| 12.6 nM | CCCN(C)C(=O)c1c(NC(=O)c2nc(C3CC3)cnc2Nc2cncnc2)cnn1C [Example 229, 6-Cyclopropyl-3-(pyrimidin-5-ylamino)-pyrazine-2-carboxylic acid [1-methyl-5-(methyl-propyl-carbamoyl)-1H-pyrazol-4-yl]-amide] |
| 12.9 nM | CC(C)(O)CNC(=O)c1c(NC(=O)c2nc(C3CC3)cnc2Nc2cncnc2)cnn1CCC(F)(F)F [Example 172, 6-Cyclopropyl-3-(pyrimidin-5-ylamino)-pyrazine-2-carboxylic acid [5-(2-hydroxy-2-methyl-propylcarbamoyl)-1-(3,3,3-trifluoro-propyl)-1H-pyrazol-4-yl]-amide] |
| 35.9 nM | O=C(Nc1cc(F)cc(F)c1C(=O)N1CCC1)c1nc(C2CC2)cnc1Nc1cncnc1 [Example 323, 6-Cyclopropyl-3-(pyrimidin-5-ylamino)-pyrazine-2-carboxylic acid [2-(azetidine-1-carbonyl)-3,5-difluoro-phenyl]-amide] |
| 105 nM | O=C(Nc1cnccc1C(=O)N1CCCC1CO)c1nc(C2CC2)ccc1Nc1cncnc1 (stereo not drawn) [Example 80, 6-Cyclopropyl-3-(pyrimidin-5-ylamino)-pyridine-2-carboxylic acid [4-(2-hydroxymethyl-pyrrolidine-1-carbonyl)-pyridin-3-yl]-amide] |
| 3.4 nM | Cn1ncc(NC(=O)c2nc(C3CC3)cnc2Nc2cncnc2)c1C(=O)NC(C)(C)CO [Example 152, 6-Cyclopropyl-3-(pyrimidin-5-ylamino)-pyrazine-2-carboxylic acid [5-(2-hydroxy-1,1-dimethyl-ethylcarbamoyl)-1-methyl-1H-pyrazol-4-yl]-amide] |
| 2.7 nM | O=C(NC1COC1)c1ncccc1NC(=O)c1nc(C2CC2)cnc1Nc1cncnc1 [Example 277, 6-Cyclopropyl-3-(pyrimidin-5-ylamino)-pyrazine-2-carboxylic acid [2-(oxetan-3-ylcarbamoyl)-pyridin-3-yl]-amide] |
| 6.4 nM | CC(C)c1ncc(Nc2cncnc2)c(C(=O)Nc2cnccc2C(=O)NCC(C)(C)O)n1 [Example 92, 2-Isopropyl-5-(pyrimidin-5-ylamino)-pyrimidine-4-carboxylic acid [4-(2-hydroxy-2-methyl-propylcarbamoyl)-pyridin-3-yl]-amide] |
| 11.6 nM | CNC(=O)c1c(NC(=O)c2nc(C3CC3)cnc2Nc2cncnc2)cnn1C(C)C [Example 139, 6-Cyclopropyl-3-(pyrimidin-5-ylamino)-pyrazine-2-carboxylic acid (1-isopropyl-5-methylcarbamoyl-1H-pyrazol-4-yl)-amide] |
| 1.4 nM | CNC(=O)c1nc(-c2ccccn2)sc1NC(=O)c1nc(C2CC2)ccc1Nc1cncnc1 [Example 65, 6-Cyclopropyl-3-(pyrimidin-5-ylamino)-pyridine-2-carboxylic acid (4-methylcarbamoyl-2-pyridin-2-yl-thiazol-5-yl)-amide] |
| 18.4 nM | CCCCN(C)C(=O)c1c(NC(=O)c2nc(C3CC3)cnc2Nc2cncnc2)cnn1C [Example 223, 6-Cyclopropyl-3-(pyrimidin-5-ylamino)-pyrazine-2-carboxylic acid [5-(butyl-methyl-carbamoyl)-1-methyl-1H-pyrazol-4-yl]-amide] |
| 470 nM | CNC(=O)c1c(NC(=O)c2nc(C(C)C)ncc2Nc2ccc(F)cc2)cnn1C [Example 191, 5-(4-Fluoro-phenylamino)-2-isopropyl-pyrimidine-4-carboxylic acid (1-methyl-5-methylcarbamoyl-1H-pyrazol-4-yl)-amide] |
| 143 nM | CNC(=O)c1c(NC(=O)c2nc(N3CCC3)cnc2Nc2cncnc2)cnn1C [Example 304, 6-Azetidin-1-yl-3-(pyrimidin-5-ylamino)-pyrazine-2-carboxylic acid (1-methyl-5-methylcarbamoyl-1H-pyrazol-4-yl)-amide] |
| 7.2 nM | CN(CCCO)C(=O)c1nn(C)cc1NC(=O)c1nc(C2CC2)ccc1Nc1cncnc1 [Example 38, 6-Cyclopropyl-3-(pyrimidin-5-ylamino)-pyridine-2-carboxylic acid {3-[(3-hydroxy-propyl)-methyl-carbamoyl]-1-methyl-1H-pyrazol-4-yl}-amide] |
| 3.9 nM | Cn1cc(NC(=O)c2nc(C3CC3)ccc2Nc2cncnc2)c(C(=O)N2CCCC2CO)n1 (stereo not drawn) [Example 49, 6-Cyclopropyl-3-(pyrimidin-5-ylamino)-pyridine-2-carboxylic acid [3-(2-hydroxymethyl-pyrrolidine-1-carbonyl)-1-methyl-1H-pyrazol-4-yl]-amide] |
| 24.9 nM | CC(C)n1ncc(NC(=O)c2nc(C3CC3)cnc2Nc2cncnc2)c1C(=O)NCC(C)(C)O [Example 138, 6-Cyclopropyl-3-(pyrimidin-5-ylamino)-pyrazine-2-carboxylic acid [5-(2-hydroxy-2-methyl-propylcarbamoyl)-1-isopropyl-1H-pyrazol-4-yl]-amide] |
| 35.9 nM | CN(CCF)C(=O)c1c(NC(=O)c2nc(C3CC3)cnc2Nc2cncnc2)cnn1C [Example 245, 6-Cyclopropyl-3-(pyrimidin-5-ylamino)-pyrazine-2-carboxylic acid {5-[(2-fluoro-ethyl)-methyl-carbamoyl]-1-methyl-1H-pyrazol-4-yl}-amide] |
| 4.9 nM | CC(C)NC(=O)c1ncccc1NC(=O)c1nc(C2CC2)cnc1Nc1cncnc1 [Example 221, 6-Cyclopropyl-3-(pyrimidin-5-ylamino)-pyrazine-2-carboxylic acid (2-isopropylcarbamoyl-pyridin-3-yl)-amide] |
| 91 nM | CNC(=O)c1nn(CCOC)cc1NC(=O)c1nc(C2CC2)ccc1Nc1cncnc1 [Example 18, 6-Cyclopropyl-3-(pyrimidin-5-ylamino)-pyridine-2-carboxylic acid [1-(2-methoxy-ethyl)-3-methylcarbamoyl-1H-pyrazol-4-yl]-amide] |
| 63.8 nM | CNC(=O)c1c(NC(=O)c2nc(C(C)O)cnc2Nc2cncnc2)cnn1C (stereo not drawn) [Example 187, 6-(1-Hydroxy-ethyl)-3-(pyrimidin-5-ylamino)-pyrazine-2-carboxylic acid (1-methyl-5-methylcarbamoyl-1H-pyrazol-4-yl)-amide] |
| 7.8 nM | CN(C)C(=O)c1cc(F)ccc1NC(=O)c1nc(C2CC2)cnc1Nc1cncnc1 [Example 298, 6-Cyclopropyl-3-(pyrimidin-5-ylamino)-pyrazine-2-carboxylic acid (2-dimethylcarbamoyl-4-fluoro-phenyl)-amide] |
| 8.1 nM | Cn1cc(NC(=O)c2nc(C3CC3)ccc2Nc2cncnc2)c(C(=O)NCC(O)CO)n1 (stereo not drawn) [Example 42, 6-Cyclopropyl-3-(pyrimidin-5-ylamino)-pyridine-2-carboxylic acid [3-(2,3-dihydroxy-propylcarbamoyl)-1-methyl-1H-pyrazol-4-yl]-amide] |
| 28 nM | CNC(=O)c1c(NC(=O)c2nc(C(C)(C)O)cnc2Nc2cncnc2)cnn1C [Example 341, 6-(1-Hydroxy-1-methyl-ethyl)-3-(pyrimidin-5-ylamino)-pyrazine-2-carboxylic acid (1-methyl-5-methylcarbamoyl-1H-pyrazol-4-yl)-amide] |
| 0.2 nM | CC(C)(O)CNC(=O)c1c(NC(=O)c2nc(C3CC3)cnc2Nc2cncnc2)cnn1CC1CCCO1 (stereo not drawn) [Example 244, 6-Cyclopropyl-3-(pyrimidin-5-ylamino)-pyrazine-2-carboxylic acid [5-(2-hydroxy-2-methyl-propylcarbamoyl)-1-(tetrahydro-furan-2-ylmethyl)-1H-pyrazol-4-yl]-amide] |
| 8.8 nM | CNC(=O)c1nn(C)cc1NC(=O)c1nc(C(C)C)ncc1Nc1cncnc1 [Example 75, 2-Isopropyl-5-(pyrimidin-5-ylamino)-pyrimidine-4-carboxylic acid (1-methyl-3-methylcarbamoyl-1H-pyrazol-4-yl)-amide] |
| 79.6 nM | Cc1ncc(Nc2cncnc2)c(C(=O)Nc2cn(C)nc2C(=O)NCC(C)(C)O)n1 [Example 112, N-(3-(2-Hydroxy-2-methylpropylcarbamoyl)-1-methyl-1H-pyrazol-4-yl)-2-methyl-5-(pyrimidin-5-ylamino)pyrimidine-4-carboxamide] |

Reference: US8703768B2, “Nitrogen containing heteroaryl compounds” (Hoffmann-La Roche Inc., priority 2010, dated 2014)
